Laboratory results as given in paper PMC10179701, “Towards Protection of Nucleic Acids from Herbicide Attack: Self-Assembly of Betaines Based on Pillar[5]arene with Glyphosate and DNA” (International Journal of Molecular Sciences, 2023).
Several values for one entry are separate records, joined by “and”; a condition that tells them apart may be missing. Equal values may be shown once.

What was measured:
[1] = Dynamic light scattering of (macrocycle-DNA)-GIS associates in Tris-HCl buffer; assay type: physicochemical; conditions: CPA 3 × 10^–6 M, CDNA 2.5 × 10^–7 M, CGIS 3 × 10^–6 M
Text: The obtained (macrocycle-DNA)-GIS associates were also studied by DLS in Tris-HCl buffer solution. The concentration of each component of the mixture was the same as in the experiments performed by UV-Vis spectroscopy (CPA = 3 × 10^–6 M, CDNA = 2.5 × 10^–7 M, CGIS = 3 × 10^–6 M). The formation of the stable aggregates (d = 183 ± 5 nm, PDI = 0.19, and ζ = –22.2 mV) was found only for the system based on macrocycle 2 with phenylalanine ester fragments (Figure S33). […] This, apparently, leads to the formation of stable aggregates in the case of the three-component (macrocycle-DNA)-GIS systems. The associate’s formation for three-component (2–DNA)–GIS system was additionally confirmed by TEM (Figure 8). It was shown that spherical nanosized particles with sizes close to those determined by DLS are formed.

[2] = system: A549 cells; experiment: Apoptosis induction by flow cytometry (DiOC6/PI), A549 cells; assay type: cell-based, human; conditions: A549, 25 μg/mL, 24 h
Protocol: (§1) The cytotoxic effect of pillar[5]arene 2 containing ester fragments of phenylalanine is probably due to the stable aggregates’ formation (Table 1). […] The agent concentration of 25 μg/mL was chosen for the experiment. […] The apoptosis-inducing effect of compound 2 on A549 and LEC cells turned out approximately the same. […]
(§2) buffer solution. The UV spectra of the solutions were then recorded. The stability constant of complex was calculated by Bindfit. Three independent experiments were carried out for each series. […]
(§3) volume of 3 mL with Tris‐HCl buffer solution. The UV spectra of the solutions were then recorded. The stability constant of each complex was calculated by Bindfit. Three independent experiments were carried […]
(§4) stability constant of complex was calculated by Bindfit. Three independent experiments were carried out […]
(§5) humidified atmosphere with 5% CO2 at 37 °C. […]
(§6) fresh one with the addition of the test substances.
(§7) Then, the medium was aspirated from the wells and 100 μL of dimethyl sulfoxide was added. […]
(§8) the formazan crystals to dissolve.
(§9) BD FACSCanto II flow cytometer. […]
(§10) humidified atmosphere with 5% CO2. […]
(§11) substances. […] After 24 h of incubation cells were […]

[3] = system: LEC cells; experiment: Apoptosis induction by flow cytometry (DiOC6/PI), LEC cells; assay type: cell-based, cow; conditions: 25 μg/mL, 24 h
Protocol: as §1, §2, §3, §4, §5, §6, §7, §8, §9, §10, §11

[4] = system: A549 cells; experiment: MTT test, A549 cells
Protocol: (§12) The next stage of this work was the study of pillar[5]arenes 1–4 ability to inhibit the viability and proliferative activity of embryonic lung epithelial (LEC) and human lung adenocarcinoma (A549) cells using the MTT test.
(§13) Further, the ability of GIS to inhibit the viability and proliferative activity of LEC and A549 cells was studied by the MTT test. […] The average inhibitory concentration (IC50) was calculated for GIS (Table 3). […]
(§14) 1.6. Cytotoxicity of pillar[5]arenes 1–4, GIS and their mixtures on A549 and LEC Cell Lines […]
(§15) activity of LEC cells and A549 cells was investigated using the MTT test according to [2]. A549 – human alveolar adenocarcinoma cell line (ATCC, Rockville, Maryland, USA) and cow embryo lung epithelial (LEC) cells (Animal Cell Culture Collection of Russian Academy of Agricultural Science, Kazan, Russia) were cultured in DMEM (GIBCO, Waltham, MA, USA) medium supplemented with 10% serum and 100 units/mL of penicillin (PanEco, Moscow, Russia) and streptomycin (PanEco, Moscow, Russia) in a humidified atmosphere with 5% CO2 at 37 °C. Cells were seeded in 96‐well plates at a concentration of 10^4 cells/well. After 24 h of cultivation, the medium was removed from the wells and replaced with a fresh one with the addition of the test substances. The volume of the culture medium in the wells was 100
(§16) μL. After 24 h incubation of cells in the presence of substances, the medium in the wells was replaced with a fresh one containing MTT reagent at a final concentration of 0.5 mg/mL. The cells were incubated with MTT for 4 h at 37 °C in an atmosphere of 5% CO2. Then, the medium was aspirated from the wells and 100 μL of dimethyl sulfoxide was added. Probes were incubated at 37 °C for 15 min in the dark for the formazan crystals to dissolve. The optical density of the formazan solution in the wells was measured using a plate reader (BioRad xMarkTM Microplate Spectrophotometer, USA) at a wavelength of 570 nm.
(§17) Three series of experiments were carried out with at least 8 replications for each variant in the series. […]

[5] = system: LEC cells; experiment: MTT test, LEC cells
Protocol: as §12, §13, §14, §15, §16, §17

[6] = Dynamic light scattering of macrocycle aggregates in water; assay type: physicochemical; conditions: H2O, 298 K
Protocol: The next stage of the work was the study of aggregation properties of both previously synthesized ester derivatives of amino acids 1 and 2, and macrocyclic betaine derivatives 3 and 4 by dynamic light scattering (DLS). The study was carried out in water in the 1 × 10^–6–1 × 10^–4 M concentration range (Figures S11–S22). The size of associates increases with decreasing macrocycle 1 concentration in solution (Table 1). A different pattern is observed for betaine derivative 3. Thus, the particles become coarser, and the polydispersity index (PDI) of the systems increased with an increase in compound 3 concentration, which is probably due to the formation of β-sheets by oligopeptide substituents. The presence of two oppositely charged fragments in one substituent leads to the fact that compound 3 becomes similar to surfactant molecules in terms of its aggregation properties.

[7] = Transmission electron microscopy of aggregates; assay type: physicochemical; conditions: 1 × 10^−4 M in water
Text: The nanosized aggregates formed by macrocycle 2 were studied by transmission electron microscopy (TEM). The formation of the spherical nanosized particles with sizes close to those determined by DLS was confirmed.

[8] = system: A549 cells; experiment: MTT assay, combined action of macrocycles with GIS on A549 cells; assay type: cell-based, human; conditions: A549, pillararene 1 × 10^–5 M with GIS 3.47 × 10^–2 M
Protocol: The ability to inhibit the viability and proliferative activity of A549 cells of macrocycles 1–4 in the presence of GIS was studied using the MTT assay. […] The developed approach opens up the possibility of creating pillar[5]arene-based herbicide antidotes. […]
as §6
Then, the medium was aspirated from the wells
and 100 μL of dimethyl sulfoxide was added.
the formazan crystals to dissolve. […]
as §11

CCOC(=O)[C@H](Cc1ccccc1)NC(=O)C[N+](C)(C)CCCNC(=O)COc1cc2c(OCC(=O)NCCC[N+](C)(C)CC(=O)N[C@@H](Cc3ccccc3)C(=O)OCC)cc1Cc1cc(OCC(=O)NCCC[N+](C)(C)CC(=O)N[C@@H](Cc3ccccc3)C(=O)OCC)c(cc1OCC(=O)NCCC[N+](C)(C)CC(=O)N[C@@H](Cc1ccccc1)C(=O)OCC)Cc1cc(OCC(=O)NCCC[N+](C)(C)CC(=O)N[C@@H](Cc3ccccc3)C(=O)OCC)c(cc1OCC(=O)NCCC[N+](C)(C)CC(=O)N[C@@H](Cc1ccccc1)C(=O)OCC)Cc1cc(OCC(=O)NCCC[N+](C)(C)CC(=O)N[C@@H](Cc3ccccc3)C(=O)OCC)c(cc1OCC(=O)NCCC[N+](C)(C)CC(=O)N[C@@H](Cc1ccccc1)C(=O)OCC)Cc1cc(OCC(=O)NCCC[N+](C)(C)CC(=O)N[C@@H](Cc3ccccc3)C(=O)OCC)c(cc1OCC(=O)NCCC[N+](C)(C)CC(=O)N[C@@H](Cc1ccccc1)C(=O)OCC)C2.[Br-].[Br-].[Br-].[Br-].[Br-].[Br-].[Br-].[Br-].[Br-].[Br-] [Compound 2]
PDI of three-component (macrocycle-DNA)-GIS system [1]: 0.19
size of aggregates d of three-component (macrocycle-DNA)-GIS system [1]: 183 ± 5 nm
zeta potential ζ of three-component (macrocycle-DNA)-GIS system [1]: –22.2 mV
proportion of living cells (Live, percentage of stained cells) [2]: 74.8%
proportion of living cells (Live, percentage of stained cells) [3]: 72.7%
concentration at which viability was reduced ([4]; A549): ≥ 5000 ng/mL
IC50 ([4]; A549, MTT, 24 h): 29.67 µg/mL
concentration at which viability was reduced [5]: ≥ 5000 ng/mL
IC50 ([5]; MTT, 24 h): 28.16 µg/mL
polydispersity index (PDI) ([6]; 1 × 10^–4 M): 0.24
size of aggregates d ([6]; 1 × 10^–4 M): 179 nm and 179 ± 8 nm
zeta potential ζ ([6]; 1 × 10^–4 M): +15.9 mV
polydispersity index (PDI) ([6]; 1 × 10^–5 M): 0.21
size of aggregates d ([6]; 1 × 10^–5 M): 157 ± 2 nm
zeta potential ζ ([6]; 1 × 10^–5 M): +31.6 mV
polydispersity index (PDI) ([6]; 1 × 10^–6 M): 0.28
size of aggregates d ([6]; 1 × 10^–6 M): 144 nm and 144 ± 7 nm
zeta potential ζ ([6]; 1 × 10^–6 M): +12.5 mV
average diameter of particles (TEM) [7]: 50 nm
change of toxicity on combined action with GIS [8]: increase in toxicity
